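Assay format: 96-well plates, 48-hour exposure. GI50: concentration for 50% inhibition of growth. TGI marks complete inhibition of growth.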
Columns and labels:
Experiment in all cases: NCI tumour cell line growth inhibition, 48 h
[1] = test system: A498 renal
[2] = test system: DU-145 prostate
[3] = test system: HL-60(TB) leukemia
[4] = test system: HOP-92 NSCLC
[5] = test system: K-562 leukemia
[6] = test system: KM12 colon
[7] = test system: NCI-H460 lung
[8] = test system: NCI-H522 lung
[9] = test system: OVCAR-3 ovarian
[10] = test system: RPMI-8226 leukemia
[11] = test system: SNB-75 CNS
[12] = test system: TK-10 renal
[13] = test system: 786-0 renal
[14] = test system: A549 NSCLC
[15] = test system: ACHN renal
[16] = test system: BT-549 breast
[17] = test system: CCRF-CEM leukemia
[18] = test system: EKVX NSCLC
[19] = test system: HCC-2998 colon
[20] = test system: HCT-116 colon
[21] = test system: HCT-15 colon
[22] = test system: HOP-62 NSCLC
[23] = test system: HS 578T breast
[24] = test system: HT29 colon
[25] = test system: IGROV1 ovarian
[26] = test system: LOX IMVI melanoma
[27] = test system: M14 melanoma
[28] = test system: MALME-3M melanoma
[29] = test system: MCF7 breast
[30] = test system: MDA-MB-231 breast
[31] = test system: MOLT-4 leukemia
[32] = test system: NCI-H226 lung
[33] = test system: NCI-H23 lung
[34] = test system: NCI/ADR-RES ovarian
[35] = test system: OVCAR-4 ovarian
[36] = test system: OVCAR-5 ovarian
[37] = test system: OVCAR-8 ovarian
[38] = test system: PC-3 prostate
[39] = test system: SF-268 CNS
[40] = test system: SF-295 CNS
[41] = test system: SF-539 CNS
[42] = test system: SK-MEL-2 melanoma
[43] = test system: SK-MEL-28 melanoma
[44] = test system: SK-MEL-5 melanoma
[45] = test system: SK-OV-3 ovarian
[46] = test system: SN12C renal
[47] = test system: SNB-19 CNS
[48] = test system: SR leukemia
[49] = test system: SW-620 colon
[50] = test system: T-47D breast
[51] = test system: U251 CNS
[52] = test system: UACC-257 melanoma
[53] = test system: UACC-62 melanoma
[54] = test system: UO-31 renal

SMILES: CO[C@]12C=C/C(=C(/C(=O)OCc3cccnc3)C(=O)CCCCCCCC[C@]3(OC)C=C/C(=C(/C(=O)OCc4cccnc4)C(=O)CCCCCCCC1)O3)O2
- GI50 [1]: 0.432 µM
- TGI [1]: 1.72 µM
- GI50 [2]: 0.375 µM
- TGI [2]: 1.27 µM
- GI50 [3]: 0.337 µM
- TGI [3]: 1.02 µM
- GI50 [4]: 0.262 µM
- TGI [4]: 0.889 µM
- GI50 [5]: 0.337 µM
- TGI [5]: 1.3 µM
- GI50 [6]: 0.207 µM
- TGI [6]: 0.429 µM
- GI50 [7]: 0.321 µM
- TGI [7]: 1.02 µM
- GI50 [8]: 0.225 µM
- TGI [8]: 0.554 µM
- GI50 [9]: 0.312 µM
- TGI [9]: 0.917 µM
- GI50 [10]: 0.291 µM
- TGI [10]: 0.927 µM
- GI50 [11]: 0.247 µM
- TGI [11]: 1.2 µM
- GI50 [12]: 0.583 µM
- TGI [12]: 1.96 µM

SMILES: COC(=O)/C=C/c1cc(OC)c2c(c1)[C@@H](C(=O)OC)[C@H](c1ccc(OC)c(OC)c1)O2
- GI50 [13]: 4.89 µM
- TGI [13]: > 100 µM
- GI50 [1]: 1.06 µM
- TGI [1]: 33 µM
- GI50 [14]: 11.2 µM
- TGI [14]: > 100 µM
- GI50 [15]: 4.45 µM
- TGI [15]: > 100 µM
- GI50 [16]: 4.88 µM
- TGI [16]: > 100 µM
- GI50 [17]: 0.983 µM
- TGI [17]: > 100 µM
- GI50 [2]: 2.8 µM
- TGI [2]: > 100 µM
- GI50 [18]: 4.62 µM
- TGI [18]: > 100 µM
- GI50 [19]: 3.35 µM
- TGI [19]: > 100 µM
- GI50 [20]: 0.528 µM
- TGI [20]: > 100 µM
- GI50 [21]: 0.486 µM
- TGI [21]: > 100 µM
- GI50 [22]: 4.33 µM
- TGI [22]: > 100 µM
- GI50 [4]: 13.1 µM
- TGI [4]: > 100 µM
- GI50 [23]: 1.7 µM
- TGI [23]: > 100 µM
- GI50 [24]: 0.505 µM
- TGI [24]: > 100 µM
- GI50 [25]: 3.84 µM
- TGI [25]: > 100 µM
- GI50 [6]: 0.703 µM
- TGI [6]: > 100 µM
- GI50 [26]: 0.771 µM
- TGI [26]: > 100 µM
- GI50 [27]: 0.816 µM
- TGI [27]: > 100 µM
- GI50 [28]: > 100 µM
- TGI [28]: > 100 µM
- GI50 [29]: 0.388 µM
- TGI [29]: 14.2 µM
- GI50 [30]: 7.39 µM
- TGI [30]: > 100 µM
- GI50 [31]: 1.73 µM
- TGI [31]: > 100 µM
- GI50 [32]: 38.4 µM
- TGI [32]: > 100 µM
- GI50 [33]: 3.57 µM
- TGI [33]: > 100 µM
- GI50 [7]: 3.9 µM
- TGI [7]: > 100 µM
- GI50 [8]: 1.44 µM
- TGI [8]: > 100 µM
- GI50 [34]: 0.768 µM
- TGI [34]: > 100 µM
- GI50 [35]: 4.76 µM
- TGI [35]: > 100 µM
- GI50 [36]: 5.23 µM
- TGI [36]: > 100 µM
- GI50 [37]: 4.53 µM
- TGI [37]: > 100 µM
- GI50 [38]: 2.11 µM
- TGI [38]: > 100 µM
- GI50 [39]: 2.91 µM
- TGI [39]: > 100 µM
- GI50 [40]: 0.715 µM
- TGI [40]: > 100 µM
- GI50 [41]: 1.22 µM
- TGI [41]: > 100 µM
- GI50 [42]: 2.8 µM
- TGI [42]: > 100 µM
- GI50 [43]: 26.4 µM
- TGI [43]: > 100 µM
- GI50 [44]: 0.901 µM
- TGI [44]: > 100 µM
- GI50 [45]: 6.13 µM
- TGI [45]: > 100 µM
- GI50 [46]: 6.44 µM
- TGI [46]: > 100 µM
- GI50 [47]: 8.64 µM
- TGI [47]: > 100 µM
- GI50 [11]: 0.432 µM
- TGI [11]: > 100 µM
- GI50 [48]: 0.543 µM
- TGI [48]: > 100 µM
- GI50 [49]: 0.561 µM
- TGI [49]: > 100 µM
- GI50 [50]: 4.99 µM
- TGI [50]: > 100 µM
- GI50 [12]: 62.7 µM
- TGI [12]: > 100 µM
- GI50 [51]: 1.38 µM
- TGI [51]: > 100 µM
- TGI [52]: > 100 µM
- GI50 [53]: 0.972 µM
- TGI [53]: > 100 µM
- GI50 [54]: 3.4 µM
- TGI [54]: > 100 µM
